17 compounds from ChEMBL document CHEMBL3044808, “Laboratory and field comparisons of insecticides to reduce infestation of Drosophila suzukii in berry crops” (2011) can be followed below.

Assay [1] relates to Drosophila suzukii. Put plainly: Insecticidal activity against Drosophila suzukii assessed as mortality at 1.1 g/ha by direct application at 22 degC measured after 24 hr. Format: functional.
The subject of assay [2] is Drosophila suzukii. Put plainly: Insecticidal activity against Drosophila suzukii assessed as male mortality at 112.3 g/ha by direct application at 22 degC measured after 24 hr. Format: functional, organism-based.
Assay [3] has as its system Drosophila suzukii. Put plainly: Insecticidal activity against Drosophila suzukii assessed as male mortality at 2.3 g/ha by direct application at 22 degC measured after 24 hr. Format: functional, organism-based.
Assay [4] deals with Drosophila suzukii. Put plainly: Insecticidal activity against Drosophila suzukii assessed as mortality at 2.3 g/ha by direct application at 22 degC measured after 24 hr. Format: functional.
Assay [5] concerns Drosophila suzukii. The experiment in a line: Insecticidal activity against Drosophila suzukii assessed as male mortality at 41 g/ha by direct application at 22 degC measured after 24 hr. Format: functional, organism-based.
Assay [6] has as its system Drosophila suzukii. The experiment in a line: Insecticidal activity against Drosophila suzukii assessed as male mortality at 3.31 g/ha by direct application at 22 degC measured after 24 hr. Format: functional, organism-based.
Assay [7] relates to Drosophila suzukii. The experiment in a line: Insecticidal activity against Drosophila suzukii assessed as mortality at 56.2 g/ha by direct application at 22 degC measured after 24 hr. Format: functional.
Assay [8] concerns Drosophila suzukii. The experiment in a line: Insecticidal activity against Drosophila suzukii assessed as mortality at 223.9 g/ha by direct application at 22 degC measured after 24 hr. Format: functional.
Assay [9] relates to Drosophila suzukii. The experiment in a line: Insecticidal activity against Drosophila suzukii assessed as mortality at 341.5 g/ha by direct application at 22 degC measured after 24 hr. Format: functional.
Assay [10] has as its system Drosophila suzukii. The experiment in a line: Insecticidal activity against Drosophila suzukii assessed as mortality at 112.3 g/ha by direct application at 22 degC measured after 24 hr. Format: functional, organism-based.
The subject of assay [11] is Drosophila suzukii. The experiment in a line: Insecticidal activity against Drosophila suzukii assessed as mortality at 62.3 g/ha by direct application at 22 degC measured after 24 hr. Format: functional.
Assay [12] deals with Drosophila suzukii. Put plainly: Insecticidal activity against Drosophila suzukii assessed as mortality at 70.2 g/ha by direct application at 22 degC measured after 24 hr. Format: functional, organism-based.
Assay [13] has as its system Drosophila suzukii. Put plainly: Insecticidal activity against Drosophila suzukii assessed as mortality at 1 g/ha by direct application at 22 degC measured after 24 hr. Format: functional.
Assay [14] concerns Drosophila suzukii. Put plainly: Insecticidal activity against Drosophila suzukii assessed as mortality at 112.1 g/ha by direct application at 22 degC measured after 24 hr. Format: functional.
The subject of assay [15] is Drosophila suzukii. Put plainly: Insecticidal activity against Drosophila suzukii assessed as mortality at 112.2 g/ha by direct application at 22 degC measured after 24 hr. Format: functional.
Assay [16] concerns Drosophila suzukii. Put plainly: Insecticidal activity against Drosophila suzukii assessed as mortality at 24 g/ha by direct application at 22 degC measured after 24 hr. Format: functional.
For assay [17], the system named is Drosophila suzukii. Put plainly: Insecticidal activity against Drosophila suzukii assessed as mortality at 3.31 g/ha by direct application at 22 degC measured after 24 hr. Format: functional, organism-based.
The subject of assay [18] is Drosophila suzukii. Put plainly: Insecticidal activity against Drosophila suzukii assessed as mortality at 113.8 g/ha by direct application at 22 degC measured after 24 hr. Format: functional, organism-based.
In assay [19] the test system is Drosophila suzukii. Put plainly: Insecticidal activity against Drosophila suzukii assessed as mortality at 41 g/ha by direct application at 22 degC measured after 24 hr. Format: functional, organism-based.
For assay [20], the system named is Drosophila suzukii. Put plainly: Insecticidal activity against Drosophila suzukii assessed as mortality at 2.2 g/ha by direct application at 22 degC measured after 24 hr. Format: functional.
In assay [21] the test system is Drosophila suzukii. The experiment in a line: Insecticidal activity against Drosophila suzukii assessed as mortality at 212.5 g/ha by direct application at 22 degC measured after 24 hr. Format: functional, organism-based.

SMILES strings stand for the structures. Active and inactive are the calls of the source. The rule behind the calls is not given here.

With `CCOP(=S)(OCC)Oc1cc(C)nc(C(C)C)n1` [DIMPYLATE], the mortality at 1.1 g/ha in the assay on Drosophila suzukii [1] is 100%.

With `CNC(=O)Oc1cccc2ccccc12` [CARBARIL], the result in the assay on Drosophila suzukii [2], with Drosophila suzukii [3], in the assay with Drosophila suzukii [5] and with Drosophila suzukii [6] was Active. Also, the mortality at 2.3 g/ha in the assay on Drosophila suzukii [4] stood at 100%.

As to `CC(C)[C@H](C(=O)O[C@H](C#N)c1cccc(Oc2ccccc2)c1)c1ccc(Cl)cc1`, in the assay on Drosophila suzukii [7], the mortality at 56.2 g/ha is 100%.

Consider `CC1(C)C(C=C(Cl)Cl)C1C(=O)OCc1cccc(Oc2ccccc2)c1` (stereo not drawn) [PERMETHRIN], for which the mortality at 223.9 g/ha with Drosophila suzukii [8] is 100%.

On to `CC1(C)C(C(=O)OC(C#N)c2cccc(Oc3ccccc3)c2)C1(C)C` (stereo not drawn) [FENPROPATHRIN], for which the mortality at 341.5 g/ha with Drosophila suzukii [9] came to 100%.

As for `C/C(=N\C#N)N(C)Cc1ccc(Cl)nc1`, the result in the assay with Drosophila suzukii [2], in the assay on Drosophila suzukii [3], in the assay on Drosophila suzukii [10], in the assay with Drosophila suzukii [5] and in the assay with Drosophila suzukii [6] was Active.

Consider `C=CCC1=C(C)C(OC(=O)C2C(C=C(C)C)C2(C)C)CC1=O` (stereo not drawn) [Allethrin], for which, in the assay on Drosophila suzukii [11], the mortality at 62.3 g/ha was 79%.

Consider `CN1COCN(Cc2cnc(Cl)s2)/C1=N\[N+](=O)[O-]`, for which the result in the assay with Drosophila suzukii [2], in the assay with Drosophila suzukii [3], in the assay on Drosophila suzukii [12], in the assay with Drosophila suzukii [5] and in the assay with Drosophila suzukii [6] was Active.

Turning to `CNC(=O)ON=C(C)SC` [METHOMYL], the mortality at 1 g/ha in the assay with Drosophila suzukii [13] stood at 100%.

On to `Cc1c(COC(=O)[C@@H]2[C@H](/C=C(\Cl)C(F)(F)F)C2(C)C)cccc1-c1ccccc1` (relative stereo) [BIFENTHRIN], for which the mortality at 112.1 g/ha in the assay on Drosophila suzukii [14] is 100%. The mortality at 112.2 g/ha with Drosophila suzukii [15] was 100%.

As to `CC1(C)C(C=C(Cl)Cl)C1C(=O)OC(C#N)c1ccc(F)c(Oc2ccccc2)c1` (stereo not drawn) [CYFLUTHRIN], the mortality at 24 g/ha in the assay with Drosophila suzukii [16] amounted to 100%.

With `CC[C@H](C)[C@H]1O[C@]2(C=C[C@@H]1C)C[C@@H]1C[C@@H](C/C=C(\C)[C@@H](O[C@H]3C[C@H](OC)[C@@H](O[C@H]4C[C@H](OC)[C@@H](O)[C@H](C)O4)[C@H](C)O3)[C@@H](C)/C=C/C=C3\CO[C@@H]4[C@H](O)C(C)=C[C@@H](C(=O)O1)[C@]34O)O2.CO[C@H]1C[C@H](O[C@H]2[C@H](C)O[C@@H](O[C@@H]3/C(C)=C/C[C@@H]4C[C@@H](C[C@]5(C=C[C@H](C)[C@@H](C(C)C)O5)O4)OC(=O)[C@@H]4C=C(C)[C@@H](O)[C@H]5OC/C(=C\C=C\[C@@H]3C)[C@]54O)C[C@@H]2OC)O[C@@H](C)[C@@H]1O`, the outcome with Drosophila suzukii [2], in the assay with Drosophila suzukii [3], in the assay with Drosophila suzukii [17], in the assay with Drosophila suzukii [5] and with Drosophila suzukii [6] was Active.

Take `CNC(=O)c1cc(Cl)cc(C)c1NC(=O)c1cc(Br)nn1-c1ncccc1Cl`: the result in the assay on Drosophila suzukii [2], in the assay with Drosophila suzukii [3], in the assay on Drosophila suzukii [5], with Drosophila suzukii [18] and in the assay with Drosophila suzukii [6] was Active.

Take `C/C=C(\C)C(=O)O[C@H]1C[C@@H](OC(C)=O)[C@@]2(C(=O)OC)CO[C@H]3[C@@H](O)[C@@](C)([C@]45O[C@@]4(C)[C@@H]4C[C@H]5O[C@@H]5OC=C[C@@]54O)[C@H]4[C@]1(CO[C@]4(O)C(=O)OC)[C@@H]32`: the result with Drosophila suzukii [2], with Drosophila suzukii [3], with Drosophila suzukii [19], in the assay with Drosophila suzukii [5] and in the assay on Drosophila suzukii [6] was Active.

As for `CCOC(=O)CC(SP(=S)(OC)OC)C(=O)OCC` (stereo not drawn) [MALATHION], the mortality at 2.3 g/ha in the assay on Drosophila suzukii [4] was determined as 100%. Also, the mortality at 2.2 g/ha with Drosophila suzukii [20] was determined as 100%.

Take `O=C(NC(=O)c1c(F)cccc1F)Nc1ccc(OC(F)(F)C(F)OC(F)(F)F)c(Cl)c1` (stereo not drawn): the result in the assay on Drosophila suzukii [21] was Active.

Consider `O=S1OCC2C(CO1)C1(Cl)C(Cl)=C(Cl)C2(Cl)C1(Cl)Cl` (stereo not drawn), for which the result in the assay with Drosophila suzukii [1] was Active.

For orientation: mortality means the percentage killed.
